Measured values: patent US12546786B2, “Circulatory biomarkers for placental or fetal health” (THE UNIVERSITY OF MELBOURNE, priority 2018, dated 2026)

System: HTR8 cells
Assay: HTR8 placental cell line proliferation monitored in real time using the xCELLigence system
Type: cell-based
Settings: 5 or 10 uM of SRI31215 administered to HTR8 placental cell line
Description: FIGS. 3A through P are graphical representations showing observational studies to determine whether placental SPINT1 is altered in cases of human SGA. To do this, a cohort of placentas was selected from either control, preeclamptic or SGA pregnancies. […] No change in SPINT1 mRNA expression was detected in placentas collected from patients who delivered at >34 weeks gestation (B). SPINT1 protein expression was assessed using Western blot and commercially available antibodies (C,D). […] Growth restriction is often associated with placental insufficiency and poor oxygen delivery to the placenta, resulting in placental hypoxia. The inventors assessed whether exposure of primary placental cells (cytotrophoblast cells isolated from term human placentas) to low oxygen conditions (1% Oxygen for hypoxia vs 8% oxygen for normoxia) would alter SPINT1 mRNA and protein expression and protein secretion. […] Given previous evidence in mice that a lack of SPINT1 may be associated with a poorly developed placenta, the inventors next set out to assess whether silencing SPINT1 using siRNA knockdown in the HTR8 placental cell line would affect cellular proliferation assessed in real time using the xCELLigence system. […] To do this, a commercially available SPINT1 mimetic called SRI31215 (Glixx laboratories) was administered to HTR8 cells and their proliferation monitored using the xCELLigence system. […]

CC1CN(CC2CCN(Cc3ccccc3)CC2)C(=O)N(c2cccc(C(=N)N)c2)C1.O=C(O)C(F)(F)F (stereo not shown) [SRI31215]
HTR8 proliferation: enhanced HTR8 proliferation
